Test results from the NIST ThermoML archive (doi:10.1016/j.jct.2018.02.017).

Columns and labels:
[1] = 100 kPa, Liquid, Vibrating tube method
[2] = mn = molality of the nth substance listed, in mol/kg; conditions: 298.15 K, 100 kPa, Liquid, Falling or rolling sphere viscometry
[3] = xn = mol fraction of the nth substance listed; conditions: 100 kPa, Liquid, Vibrating tube method
[4] = excess molar enthalpy (molar enthalpy of mixing); xn = mol fraction of the nth substance listed; conditions: 100 kPa, Liquid, Flow calorimetry

CCCCn1cc[n+](C)c1.N#CN=C=[N-] [1-butyl-3-methylimidazolium dicyanamide]
[1]
Conditions	mass density [kg/m3]
288.15 K	1065.64
293.15 K	1062.04
298.15 K	1059.22
303.15 K	1056.04
308.15 K	1052.88
313.15 K	1049.74
318.15 K	1046.63
323.15 K	1043.5
328.15 K	1040.4
333.15 K	1037.38

CCCCn1cc[n+](C)c1.N#CN=C=[N-] [1-butyl-3-methylimidazolium dicyanamide] + O
[2]
Conditions	viscosity [mPa·s]
m1 = 0.01061	0.8936
m1 = 0.01522	0.895
m1 = 0.03084	0.901
m1 = 0.05091	0.9086
m1 = 0.06874	0.9157
m1 = 0.08186	0.9219

Conditions	excess molar enthalpy, [4] [kcal/mol]	mass density, [3] [kg/m3]
288.15 K, x1 = 0.000389	5.5e-05	999.45
288.15 K, x1 = 0.000777	0.000139	999.8
288.15 K, x1 = 0.001165	0.000232	1000.14
288.15 K, x1 = 0.001552	0.000335	1000.47
288.15 K, x1 = 0.00194	0.000437	1000.79
288.15 K, x1 = 0.002327	0.000547	1001.11
298.15 K, x1 = 0.000388	0.000198	997.35
298.15 K, x1 = 0.000777	0.000428	997.65
298.15 K, x1 = 0.001165	0.000664	997.93
298.15 K, x1 = 0.001552	0.000903	998.21
298.15 K, x1 = 0.001939	0.00115	998.48
298.15 K, x1 = 0.002327	0.0014	998.75
308.15 K, x1 = 0.000389	0.000351	994.29
308.15 K, x1 = 0.000777	0.000739	994.54
308.15 K, x1 = 0.001165	0.00113	994.79
308.15 K, x1 = 0.001552	0.00152	995.02
308.15 K, x1 = 0.00194	0.0019	995.25
308.15 K, x1 = 0.002327	0.0023	995.48
318.15 K, x1 = 0.000388	0.000511	990.43
318.15 K, x1 = 0.000777	0.00106	990.65
318.15 K, x1 = 0.001165	0.00161	990.85
318.15 K, x1 = 0.001552	0.00215	991.06
318.15 K, x1 = 0.00194	0.00269	991.25
318.15 K, x1 = 0.002328	0.00323	991.45
